Measurements: patent publication US20190330529A1, “USE AND COMPOSITION OF BUFFER FORMULATION WITH MULTIPLE PH VALUES AND UREASE ACTIVITY INHIBITOR” (ECO-GEO BIO-TECHNOLOGY COMPANY LIMITED, priority 2018, published 2019)

Legend:
[1] = target: T1, urease (U7752, Sigma-Aldrich) (Canavalia ensiformis, UniProt P07374); assay: Inhibition of the activity of the urease in citric acid salt buffer solution (Berthelot, absorbance 625 nm); assay type: biochemical
T1 construct: purchased Sigma-Aldrich U7752
Procedure: (§1) 7.1 Control group: Control group: 20 μL of the buffer solution and 25 μL of 50 ppm urease were added and mixed in wells of a 96-well plate. After the mixture reacted at 37° C. for 5 minutes, 40 μL of 20 mM urea solution was added into the mixture. After the mixture reacted at 37° C. for 10 minutes, 55 μL of Berthelot reagent A and 60 μL of Berthelot reagent B were added into each well. The mixture was held in the dark at 37° C. for 30 minutes, and the absorbance was measured at 625 nm wavelength by the ELISA reader. Each sample was measured at least in triplicate.
as §1, with “7.2 Ascorbic acid groups: 10” for “7.1 Control group: Control group: 20”, “buffer solution, 10 μL of ascorbic acid” for “buffer”, “mixture to make the final concentrations of the ascorbic acid as 120 ppm, 240 ppm and 480 ppm, respectively.” for “mixture.”, “triplicate. The inhibition % of the activity of the urease=100−((the absorbance of the sample/the absorbance of the control group)×100).” for “triplicate.”
as §1, with “8.1” for “7.1”
as §1, with “8.2 Ascorbic acid groups: 10” for “7.1 Control group: Control group: 20”, “buffer solution, 10 μL of ascorbic acid” for “buffer”, “mixture to make the final concentrations of the ascorbic acid as 120 ppm, 240 ppm and 480 ppm, respectively.” for “mixture.”, “triplicate. The inhibition % of the activity of the urease=100−((the absorbance of the sample/the absorbance of the control group)×100).” for “triplicate.”
as §1, with “9.1” for “7.1”
as §1, with “9.2 Ascorbic acid groups: 10” for “7.1 Control group: Control group: 20”, “buffer solution, 10 μL of ascorbic acid” for “buffer”, “mixture to make the final concentrations of the ascorbic acid as 120 ppm, 240 ppm and 480 ppm, respectively.” for “mixture.”, “Each sample was measured at least in triplicate.” left out

[2] = target: T1, urease (U7752, Sigma-Aldrich); assay: Inhibition of the activity of the urease in phosphate buffer solution (Berthelot, absorbance 625 nm); assay type: biochemical
Procedure: 1. Experiment of the Inhibition of the Activity of the Urease (in Phosphate Buffer Solution, pH 5.0)
1.1 Control group: 20 μL of the buffer solution and 25 μL of 50 ppm urease (U7752, Sigma-Aldrich) were added and mixed in wells of a 96-well plate. After the mixture reacted at 37° C. for 5 minutes, 40 μL of 20 mM urea solution was added into the mixture. After the mixture reacted at 37° C. for 10 minutes, 55 μL of Berthelot reagent A (prepared by mixing 5 g of phenol and 25 mg of sodium nitroprusside and diluting the mixture to 500 mL with purified water) and 60 μL of Berthelot reagent B (prepared by mixing 2.5 g of sodium hydroxide and 4.2 mL of sodium hypochlorite and diluting the mixture to 500 mL with purified water) were added into each well. The mixture was held in the dark at 37° C. for 30 minutes, and the absorbance was measured at 625 nm wavelength by an enzyme-linked immuno-sorbent assay (ELISA) reader. Each sample was measured at least in triplicate.
as §1, with “1.2 Ascorbic acid groups: 10” for “7.1 Control group: Control group: 20”, “buffer solution, 10 μL of ascorbic acid” for “buffer”, “mixture to make the final concentrations of the ascorbic acid as 120 ppm, 240 ppm and 480 ppm, respectively.” for “mixture.”, “triplicate. The inhibition % of the activity of the urease=100−((the absorbance of the sample/the absorbance of the control group)×100).” for “triplicate.”
2. Experiment of the Inhibition of the Activity of the Urease (in Phosphate Buffer Solution, pH 6.0)
as §1, with “2.1” for “7.1 Control group:”
as §1, with “2.2 Ascorbic acid groups: 10” for “7.1 Control group: Control group: 20”, “buffer solution, 10 μL of ascorbic acid” for “buffer”, “mixture to make the final concentrations of the ascorbic acid as 120 ppm, 240 ppm and 480 ppm, respectively.” for “mixture.”, “triplicate. The inhibition % of the activity of the urease=100−((the absorbance of the sample/the absorbance of the control group)×100).” for “triplicate.”
3. Experiment of the Inhibition of the Activity of the Urease (in Phosphate Buffer Solution, pH 6.8)
as §1, with “3.1” for “7.1 Control group:”, “triplicate. […]” for “triplicate.”

[3] = pH 5, read-out: inhibition % of the activity of the urease
[4] = pH 6, read-out: inhibition % of the activity of the urease
[5] = pH 6.8, read-out: inhibition % of the activity of the urease
[6] = pH 7, read-out: inhibition % of the activity of the urease
[7] = pH 7.3, read-out: inhibition % of the activity of the urease
[8] = pH 8, read-out: inhibition % of the activity of the urease

T1 sequence (P07374 whole entry, looked up): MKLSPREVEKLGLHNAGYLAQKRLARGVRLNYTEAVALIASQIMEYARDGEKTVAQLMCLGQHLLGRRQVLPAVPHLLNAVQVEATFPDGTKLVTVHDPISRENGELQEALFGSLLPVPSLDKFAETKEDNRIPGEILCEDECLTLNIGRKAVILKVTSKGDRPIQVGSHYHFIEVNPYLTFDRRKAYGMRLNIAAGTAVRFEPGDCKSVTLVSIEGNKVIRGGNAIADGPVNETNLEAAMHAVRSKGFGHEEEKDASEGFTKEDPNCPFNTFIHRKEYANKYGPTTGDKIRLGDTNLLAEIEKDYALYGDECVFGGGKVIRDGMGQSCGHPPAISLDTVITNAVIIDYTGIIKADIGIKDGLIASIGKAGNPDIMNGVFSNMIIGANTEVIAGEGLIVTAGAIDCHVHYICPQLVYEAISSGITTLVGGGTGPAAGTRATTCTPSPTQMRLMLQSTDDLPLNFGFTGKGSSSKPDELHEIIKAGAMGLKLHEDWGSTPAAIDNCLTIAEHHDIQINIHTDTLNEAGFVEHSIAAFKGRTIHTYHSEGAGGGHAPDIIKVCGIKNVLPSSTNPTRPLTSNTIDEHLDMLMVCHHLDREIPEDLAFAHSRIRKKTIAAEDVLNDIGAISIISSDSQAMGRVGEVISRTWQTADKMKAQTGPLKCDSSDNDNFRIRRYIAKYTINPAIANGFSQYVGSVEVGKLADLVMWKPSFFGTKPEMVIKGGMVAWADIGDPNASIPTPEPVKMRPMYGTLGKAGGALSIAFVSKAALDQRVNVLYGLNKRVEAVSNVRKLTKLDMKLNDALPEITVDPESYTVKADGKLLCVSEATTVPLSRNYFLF

In the case of `O=C1O[C@H]([C@@H](O)CO)C(O)=C1O` [ascorbic acid], the inhibition at 120 ppm ([1]; pH 6.8, read-out: inhibition % of the activity of the urease, 120 ppm ascorbic acid, citrate buffer solution, pH 6.8) is reported as -6.8%, the inhibition at 240 ppm ([1]; pH 6.8, read-out: inhibition % of the activity of the urease, 240 ppm ascorbic acid, citrate buffer solution, pH 6.8) is reported as 66% and the inhibition at 480 ppm ([1]; pH 6.8, read-out: inhibition % of the activity of the urease, 480 ppm ascorbic acid, citrate buffer solution, pH 6.8) is reported as 93.5%. It also gave an inhibition at 480 ppm ([1]; pH 6.8, read-out: inhibition of the urea hydrolysis, 480 ppm ascorbic acid, citrate buffer solution, pH 6.8-7.0) greater than 90%, an inhibition at 480 ppm ([1]; pH 6.8, read-out: inhibition of the urea hydrolysis, 480 ppm ascorbic acid, citrate buffer solution, pH 6.8-7.3) greater than 50% and an inhibition at 120 ppm ([1]; pH 7, read-out: inhibition % of the activity of the urease, 120 ppm ascorbic acid, citrate buffer solution, pH 7.0) of -25.2%. The inhibition at 240 ppm ([1]; pH 7, read-out: inhibition % of the activity of the urease, 240 ppm ascorbic acid, citrate buffer solution, pH 7.0) was 32.6%, the inhibition at 480 ppm ([1]; pH 7, read-out: inhibition % of the activity of the urease, 480 ppm ascorbic acid, citrate buffer solution, pH 7.0) was 93.6% and the inhibition at 120 ppm ([1]; pH 7.3, read-out: inhibition % of the activity of the urease, 120 ppm ascorbic acid, citrate buffer solution, pH 7.3) was -19.7%. For the same molecule, the inhibition at 240 ppm ([1]; pH 7.3, read-out: inhibition % of the activity of the urease, 240 ppm ascorbic acid, citrate buffer solution, pH 7.3) was 27.1%, the inhibition at 480 ppm ([1]; pH 7.3, read-out: inhibition % of the activity of the urease, 480 ppm ascorbic acid, citrate buffer solution, pH 7.3) was 75.3% and the “inhibitory effect on the urease hydrolysis (in words)” value ([2]; environment with pH 5-8, optical density versus control group) was “has the inhibitory effect on the urease hydrolysis”. For the same molecule, the “inhibitory effect on the urease hydrolysis” value ([2]; environment with pH 6.8-7.3, summary statement, buffer and concentration not stated) was “over 90%”, the inhibition at 120 ppm [2, 3] was 25.7% and the inhibition at 240 ppm [2, 3] was 33.1%. For the same molecule, the inhibition at 480 ppm [2, 3] was 40.5%, the inhibition at 120 ppm [2, 4] was 26.7% and the inhibition at 240 ppm [2, 4] was 49%. For the same molecule, the inhibition at 480 ppm [2, 4] was 52.9%, the inhibition at 480 ppm ([2]; pH 6, read-out: inhibition of the urea hydrolysis) was greater than 50% and the inhibition at 120 ppm [2, 5] was 2%. It also gave an inhibition at 240 ppm [2, 5] of 37.3%, an inhibition at 480 ppm [2, 5] of 96.5% and an inhibition at 480 ppm ([2]; pH 6.8, read-out: inhibition of the urea hydrolysis) greater than 93%. The inhibition at 120 ppm [2, 6] was 16.1%, the inhibition at 240 ppm [2, 6] was 59.4% and the inhibition at 480 ppm [2, 6] was 97.2%. For the same molecule, the inhibition at 120 ppm [2, 7] was 11.3%, the inhibition at 240 ppm [2, 7] was 34.6% and the inhibition at 480 ppm [2, 7] was 93.6%. The inhibition at 120 ppm [2, 8] was 8.1%, the inhibition at 240 ppm [2, 8] was 33.3% and the inhibition at 480 ppm [2, 8] was 77.7%.
